In patent publication US20250296967A1 (Ferring B.V., priority 2006, published 2025):

Tests used:
ectopic bone = experiment: Ectopic bone induction by B2A2-K-NS coated granules with exogenous recombinant BMP-2, subcutaneous implant in rats; assay type: in vivo
Protocol: Sterile ceramic granules (Berkeley Advanced Biomaterials, Inc.; 60:40 (HA:TCP)) where coated by immersing them for 30 minutes in a solution containing B2A2-K-NS (0-, 2.5-, 10-, 25 μg/ml). Thereafter, the solution was removed by aspiration and the granules allowed to air dry. The coated granules were then placed in sterile gelatin capsules. […] The capsules were placed subcutaneously in young adult rats on the flanks in pre-prepared pouches and the surgical site closed with surgical clips. After 30 days, the implants were surgically removed, weighed, and palpated to assess hardness. The explants were then fixed with multiple changes into 70% ethanol.

[1] = Release of B2A2-K-NS from ceramic granules (BCA, cumulative release, FIG. 1); assay type: physicochemical; conditions: first 4 hour period, 0.9% saline
Protocol: Methods: After binding the peptide to the granules as described in Example 2, each of the vials containing particulate materials was replenished with 1.8 mL of 0.9% saline and placed on the rocking platform. After specified time interval, the supernatant was removed, filtered, and collected over a period of 43 hrs. Based on the amount of the peptide present in the supernatant, the amount of peptide bound to or released from the particles as was calculated. The study was performed on two separate days with the averages plotted showing cumulative peptide released vs. time (see graph in FIG. 1) (Note: the HA plus silicon was only performed at high dose). A BCA assay was utilized to determine peptide concentrations. The 60:40 granule was pH 8.8.
Referring now to FIG. 1, the release characteristics of specified materials tested. There was a burst of peptide released over a 4 hour period (supernatant was assessed hourly for the first four hours). At high loading doses (431 μg peptide/cc granule), the burst phase accounted for 12-22% of the total amount of peptide loaded. For intermediate loading doses (144 μg peptide/cc granule), the burst phase accounted for 25-35% of the total amount loaded. For low doses (43 μg peptide/cc granule), the burst phase accounted for 48-59% of the total amount loaded. Following the burst period, there was a slower, sustained release period.
The diamond on the graph represents 60% HAP and 40% TCP (high dose). The square represents 60% HAP and 40% TCP (medium dose). The triangle represents 20% HAP and 80% TCP (high dose). The X represents 20% HAP and 80% TCP (medium dose). The star represents 100% HAP plus Si (high dose). The filled-in circle represents 60% HAP and 40% TCP (low dose), and the plus sign represents 20% HAP and 80% TCP (low dose).

[2] = biological target: T1, Type I, bovine-derived, dermal collagen sheets (Bos taurus, UniProt P02453+P02465); experiment: Release of B2A2-K-NS from collagen (BCA); assay type: physicochemical; conditions: 0.9% saline
T1 construct: Type I, bovine-derived, dermal collagen sheets; from tissue; host or cells: bovine dermis
Protocol: To initiate release, a vial containing collagen coated with B2A2-K-NS was replenished with 2 ml of 0.9% saline and placed on the rocking platform. After specified time interval, the supernatant was removed, filtered, and collected. A BCA assay was utilized to determine peptide concentrations. […] The BSA standard curve was generated by placing BSA in supernatant from the collagen sponge (without peptide).

[3] = test system: mouse pluripotent cell lines C2C12; experiment: Alkaline phosphatase assay of B2A2-K-NS released from 20:80 granules, with or without BMP-2; assay type: cell-based; conditions: peptide released from 20:80 granules, 1.25- to 10 μg/ml, BMP-2 100 ng/ml, C2C12 cells, 1 day
Protocol: Methods: (A) Peptide was collected over a six hour period after release from 20:80 (as described in Example 3). The supernatants from all time points were mixed, frozen, and lyophilized for 48 hours. The peptide pellet was reconstituted in 1.5 ml saline and a BCA assay performed to determine peptide concentration.
(B) Alkaline phosphatase assays were performed using mouse pluripotent cell lines C2C12. Cells were plated in 96-well (1×10^4/well) plates in DMEM/F-12 Ham's containing 15% FBS, 1% L-gln, 1% NaPyr, and 1% gentamycin and allowed 24 hours to attach at 37 C, 5% CO2, 90% humidity. […] After 1 day, ALP activity was determined.

B2A2-K-NS [4] = experiment: Release of B2A2-K-NS from peptide bound BRGs (ELISA); assay type: physicochemical; conditions: 0.9% saline
Protocol: The third step was to measure the amount of peptide released using the same ELISA assay. Briefly, the peptide bound BRGs were placed in 1 ml of 0.9% saline and the amount of peptide released was measured over a 72 hours period.

B2A2-K-NS [5] = experiment: Binding of B2A2-K-NS to ceramic granules (BCA / micro BCA, subtraction method); assay type: physicochemical; conditions: high B2A2-K-NS coating concentrations, as described in Example 2
Protocol: Methods. 1.5 cc of granules were added to 1.8 mL of 0.9% saline or of peptide solution in 0.9% saline having a concentration of 35.9, 119.8, 359.3 μg/ml. The granule-peptide solutions were swirled vigorously for 15 seconds every 5 minutes for 20 minutes. After swirling, the supernatant was removed, filtered through 0.22 μm filter (low protein binding durapore (PVDF)) and assayed via Bicinchoninic Acid (BCA) or micro BCA assay (Pierce, Rockport, IL) for peptide content. The amount of peptide bound to the particles was obtained by subtraction method (the total peptide minus peptide present in the supernatant is equal to the amount of peptide bound on particulate materials.). The study was performed on two separate days and the results averaged below: […]

B2A2-K-NS [6] = experiment: Binding of B2A2-K-NS to commercially available bone replacement grafts (ELISA, difference method); assay type: physicochemical; conditions: BRGs in 0.9% saline
Protocol: The next step was to determine whether the peptide was able to bind these BRGs. B2A2-K-NS (approximately 20 μg/ml) was incubated in one ml of 0.9% saline solution with 0.17 gram BRGs for 15 minutes. An ELISA assay was performed both on peptide solution without BRGs and the supernatant from the peptide+BRG. The difference between the peptide only reading and the supernatant from the peptide+BRG provided the amount of peptide bound.
The binding definitions are defined as follows: None is no detectable binding. High is binding>20 μg peptide/cc graft material. Intermediate is less than 20 μg peptide/cc graft material, but above non-detectable binding.

[7] = biological target: T1, Type I, bovine-derived, dermal collagen sheets; experiment: Binding of B2A2-K-NS to collagen sheets; assay type: physicochemical; conditions: 1,072 μg B2A2-K-NS/ml collagen sheet in 0.9% saline
Protocol: Type I, bovine-derived, dermal collagen sheets that were crosslinked with DHT and lyophilized were incubated with 1,072 μg B2A2-K-NS/ml collagen sheet in 0.9% saline solution. The binding efficiency was 61%, which was far lower than the binding efficiency on the Ca^2+ containing granules at high B2A2-K-NS coating concentrations (87-95% as described in Example 2). Lower binding efficiencies may be attributed to lower surface area as compared to that of the granules.

[8] = Comparative release of synthetic growth factor analogues from a single scaffold (BCA, FIG. 5); assay type: physicochemical; conditions: 100 μg peptide/cc granule, 0.9% saline
Protocol: Methods for assaying peptide release from a single scaffold are as follows: 1 cc of granules were added to 1.2 mL of 0.9% saline or of peptide solution in 0.9% saline having a concentration of 100 μg B2A2-K-NS, LA2, or F2A4/cc granule. The granule-peptide solutions were swirled vigorously for 15 seconds every 5 minutes for 20 minutes. After swirling, the supernatant was removed and assayed via BCA or micro BCA assay for peptide content. The BCA value for each peptide was corrected relative to the BSA standard curve.
Referring now to FIG. 5, the shape of the release curve is similar for all three peptides (B2A2-K-NS (diamonds), LA2 (squares), and F2A4-K-NS (triangles)). However, the magnitude of the release is markedly different.

T1 sequence (P02453 162-1217 limits assumed): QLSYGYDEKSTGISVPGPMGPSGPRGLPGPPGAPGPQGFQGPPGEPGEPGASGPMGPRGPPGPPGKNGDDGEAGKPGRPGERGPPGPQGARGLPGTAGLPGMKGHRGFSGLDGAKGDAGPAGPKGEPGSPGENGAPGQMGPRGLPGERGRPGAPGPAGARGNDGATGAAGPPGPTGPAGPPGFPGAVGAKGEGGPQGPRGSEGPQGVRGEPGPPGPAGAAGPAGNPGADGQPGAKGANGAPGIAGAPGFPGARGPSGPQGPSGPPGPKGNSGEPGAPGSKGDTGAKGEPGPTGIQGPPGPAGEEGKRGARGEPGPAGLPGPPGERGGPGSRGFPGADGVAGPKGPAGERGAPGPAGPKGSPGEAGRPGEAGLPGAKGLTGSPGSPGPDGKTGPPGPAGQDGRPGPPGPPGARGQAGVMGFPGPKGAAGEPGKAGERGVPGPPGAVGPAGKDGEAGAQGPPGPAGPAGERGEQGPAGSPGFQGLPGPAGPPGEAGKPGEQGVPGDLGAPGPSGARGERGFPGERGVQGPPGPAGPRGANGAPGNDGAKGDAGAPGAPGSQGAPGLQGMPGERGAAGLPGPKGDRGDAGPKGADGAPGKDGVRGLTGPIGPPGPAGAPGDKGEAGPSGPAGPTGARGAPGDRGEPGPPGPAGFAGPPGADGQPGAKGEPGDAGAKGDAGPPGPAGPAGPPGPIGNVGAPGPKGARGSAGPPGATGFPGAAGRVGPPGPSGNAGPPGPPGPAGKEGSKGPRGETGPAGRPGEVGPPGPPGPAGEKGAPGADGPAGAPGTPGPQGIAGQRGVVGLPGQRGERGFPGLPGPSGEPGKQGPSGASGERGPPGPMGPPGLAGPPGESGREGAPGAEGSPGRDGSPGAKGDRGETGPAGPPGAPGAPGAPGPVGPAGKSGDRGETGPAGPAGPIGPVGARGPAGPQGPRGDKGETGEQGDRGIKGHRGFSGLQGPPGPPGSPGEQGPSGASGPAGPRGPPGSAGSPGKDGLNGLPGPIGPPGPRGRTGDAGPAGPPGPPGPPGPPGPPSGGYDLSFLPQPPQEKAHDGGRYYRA
T1 sequence (P02465 80-1117 limits assumed): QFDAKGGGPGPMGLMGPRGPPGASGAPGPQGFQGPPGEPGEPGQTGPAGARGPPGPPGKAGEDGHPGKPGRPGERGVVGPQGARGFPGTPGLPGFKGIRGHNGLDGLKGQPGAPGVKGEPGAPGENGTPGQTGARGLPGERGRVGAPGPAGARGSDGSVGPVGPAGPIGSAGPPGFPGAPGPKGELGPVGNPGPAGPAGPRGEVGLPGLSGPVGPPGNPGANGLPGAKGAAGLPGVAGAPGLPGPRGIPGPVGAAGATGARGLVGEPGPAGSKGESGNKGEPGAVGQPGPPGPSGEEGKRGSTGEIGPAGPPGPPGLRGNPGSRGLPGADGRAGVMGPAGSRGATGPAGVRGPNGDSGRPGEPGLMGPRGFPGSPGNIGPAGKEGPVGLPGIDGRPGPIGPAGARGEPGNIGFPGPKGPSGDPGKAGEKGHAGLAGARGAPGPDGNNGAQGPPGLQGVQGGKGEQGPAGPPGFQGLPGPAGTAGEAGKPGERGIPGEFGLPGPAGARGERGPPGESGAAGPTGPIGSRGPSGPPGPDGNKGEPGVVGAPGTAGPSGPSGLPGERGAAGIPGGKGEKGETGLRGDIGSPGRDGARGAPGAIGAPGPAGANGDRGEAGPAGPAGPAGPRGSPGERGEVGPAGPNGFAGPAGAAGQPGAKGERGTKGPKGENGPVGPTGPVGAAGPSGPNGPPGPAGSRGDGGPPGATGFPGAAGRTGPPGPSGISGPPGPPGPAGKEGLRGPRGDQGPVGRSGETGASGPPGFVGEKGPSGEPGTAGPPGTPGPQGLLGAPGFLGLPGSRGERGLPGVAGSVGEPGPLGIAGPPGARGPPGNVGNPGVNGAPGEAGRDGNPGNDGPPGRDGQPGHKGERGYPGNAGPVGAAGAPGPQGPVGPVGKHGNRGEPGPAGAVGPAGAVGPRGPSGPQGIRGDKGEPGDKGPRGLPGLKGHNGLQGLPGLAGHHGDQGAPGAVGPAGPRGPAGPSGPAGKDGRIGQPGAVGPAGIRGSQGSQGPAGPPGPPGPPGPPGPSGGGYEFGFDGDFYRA

Substance	implants judged palpably hardened (ectopic bone; coated with 2.5 μg B2A2-K-NS, 1 μg recombinant BMP-2, rats, 30 days)	implants judged palpably hardened (ectopic bone; coated with 10 μg B2A2-K-NS, 1 μg recombinant BMP-2, rats, 30 days)	implants judged palpably hardened (ectopic bone; coated with 25 ug B2A2-K-NS, 1 μg recombinant BMP-2, rats, 30 days)	implants with histologically identifiable new bone (ectopic bone; coated with 25 ug B2A2-K-NS, 1 μg recombinant BMP-2, rats, 30 days, hematoxylin and eosin)	explant weight versus controls (no BMP-2, no B2A2-K-NS) (ectopic bone; rats, subcutaneous, 60:40 (HA:TCP) granules coated with 25 μg B2A2-K-NS, 1 μg recombinant BMP-2, 30 days)	explant weight versus those containing BMP-2 but no B2A2-K-NS (ectopic bone; rats, subcutaneous, granules coated with 25 μg B2A2-K-NS, 1 μg recombinant BMP-2, 30 days)	burst phase release, share of the total amount of peptide loaded ([1]; high loading doses (431 μg peptide/cc granule))	burst phase release, share of the total amount loaded ([1]; intermediate loading doses (144 μg peptide/cc granule))	burst phase release, share of the total amount loaded ([1]; low doses (43 μg peptide/cc granule))	cumulative amount of peptide released ([2]; after 1 hour) [%]	cumulative amount of peptide released ([2]; after 2 hours) [%]	cumulative amount of peptide released ([2]; after 3 hours) [%]	cumulative amount of peptide released ([2]; after 4 hours) [%]	effect on BMP-2 activity (ALP activity) [3]	pH range of materials from which the peptide could release (B2A2-K-NS [4])	binding efficiency on the Ca2+ containing granules (B2A2-K-NS [5])	pH range of BRGs to which the peptide was found to bind (B2A2-K-NS [6])	binding efficiency [7] [%]	release of peptide from the scaffold (relative magnitude) [8]
AISMLYLDENEKVVLKK(AISMLYLDENEKVVLK)HxHxHxRKRLDRIARNH2 [B2A2-K-NS]	3/4	3/4	4/4	4/4	significantly higher weight	tended (p=0.11) to have a higher weight	12-22%	25-35%	48-59%	11	19	23	28	increased BMP-2 activity	6.3-10	87-95%	3.7-10.5	61	–
SIKVAVAAK(H-SIKVAVAA)xHxHxRKRKLERIAR-amide [LA2]	–	–	–	–	–	–	–	–	–	–	–	–	–	–	–	–	–	–	most rapidly released
YRSRKYSSWYVALKRK(H-YRSRKYSSWYVALKR)HxHxHxRKRLDRIAR-amide [F2A4]	–	–	–	–	–	–	–	–	–	–	–	–	–	–	–	–	–	–	does not release readily
